28 compounds from patent US8809342B2, “Glucagon receptor modulators” (Pfizer Inc., priority 2010, dated 2014) can be followed below.

SMILES strings stand for the structures.

T1 sequence (P47871 26-477): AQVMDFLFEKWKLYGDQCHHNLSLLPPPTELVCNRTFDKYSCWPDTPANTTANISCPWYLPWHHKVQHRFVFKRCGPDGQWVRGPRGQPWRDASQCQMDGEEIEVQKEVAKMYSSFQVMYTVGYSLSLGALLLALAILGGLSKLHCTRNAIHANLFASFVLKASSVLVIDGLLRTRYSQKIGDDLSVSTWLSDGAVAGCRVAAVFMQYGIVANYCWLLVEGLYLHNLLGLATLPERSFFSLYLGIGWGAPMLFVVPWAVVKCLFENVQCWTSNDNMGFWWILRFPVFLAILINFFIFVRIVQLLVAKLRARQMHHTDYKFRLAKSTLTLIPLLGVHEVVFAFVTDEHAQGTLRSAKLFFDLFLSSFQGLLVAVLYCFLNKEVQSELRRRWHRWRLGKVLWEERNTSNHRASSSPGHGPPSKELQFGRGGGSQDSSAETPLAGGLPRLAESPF

This assay has as its target T1, human glucagon receptor (Homo sapiens, UniProt P47871).
T1 construct: expressed in transfected cells; host or cells: CHO-K1 cells, stably transfected
Kind of assay: Glucagon cAMP assay (Cisbio cAMP detection). It is filed as cell-based. The method, then: The Cisbio cAMP detection assay is used to determine the ability of punitive glucagon antagonist to block glucagon induced cAMP production. Potential glucagon antagonists are re-suspended and diluted in 100% DMSO. Prior to use in the Glucagon cAMP assay 100×DMSO compound stocks are diluted 20× with DMEM-F12 media (Invitrogen) containing either 0.1% or 4% BSA. 2 uls of 5× compound stocks are spotted into the appropriate wells of low binding white solid bottom 384 well plates (Corning). 2 uls of 5% DMSO or known glucagon antagonist are added to each plate to define the assay window. CHOK1 cells stably transfected with the human glucagon receptor are removed from culture flasks with cell dissociation buffer. Cell pellets are re-suspended, at a concentration of 8.3e^5 cells/ml in DMEM-F12 with or without 4% BSA and 200 uM IBMX. 6 uls of cell suspensions are added to the assay plates. Plates are incubated for 20 min at room temperature prior to the addition of a 100 pM challenge dose of glucagon. On a separate plate glucagon dose response curves are run to determine the EC50 of glucagon. After a 30 min room temperature incubation the reaction is terminated by the addition of lysis buffer containing the cAMP detection reagents. Plates are incubated for an additional 60 min at room temperature prior to being read on the Perkin Elmer fluorescent plate reader. Raw is converted to nM of cAMP produced based on a cAMP standard curve. Converted data is then analyzed using the Pfizer data analysis program. IC50 values are determined from the generated sigmoidal dose response curves. Kb values are the calculated using a modified Cheng-Prusoff equation.
Background: Cyclic AMP is a second messenger, typically raised through Gs and lowered through Gi signalling.
`CC(C)C(Nc1ccc(C(=O)NCCC(=O)O)cn1)c1ccc(-c2ccc(C(F)(F)F)cc2)cc1` (single isomer, unassigned; (+)) [Example 1.14, (+)-3-(6-(2-methyl-1-(4′-(trifluoromethyl)biphenyl-4-yl)propylamino)nicotinamido)propanoic acid] displayed a Kb of 990 nM. The result for `CC(C)CC(Nc1ccc(C(=O)NCCC(=O)O)cn1)c1ccc(-c2ccc(C#N)cc2)cc1` (racemic) [Example 1.45, (+/−)-3-(6-(1-(4′-cyanobiphenyl-4-yl)-3-methylbutylamino)nicotinamido)propanoic acid] reads 620 nM; that for `CCCC(Nc1cnc(-c2ccc(C(F)(F)F)cc2)nc1)c1ccc(C(=O)NCCC(=O)O)cc1` (single isomer, unassigned; isomer 2) [Example 2.17, 3-(4-(1-(2-(4-(trifluoromethyl)phenyl)pyrimidin-5-ylamino)butyl)benzamido)propanoic acid, Isomer 2], 420 nM. The result for `CC(C)C[C@@H](Nc1ccc(C(=O)NCCC(=O)O)cn1)c1ccc(-c2ccc(C(F)(F)F)cc2)nc1` (single isomer, unassigned; isomer 1) [Example 4.20, 3-(6-(3-methyl-1-(6-(4-(trifluoromethyl)phenyl)pyridin-3-yl)butylamino)nicotinamido)propanoic acid, Isomer 1] reads 61 nM. The figure for `CCCC(Nc1ccc(-c2ccc(C(F)(F)F)cc2)nc1)c1ccc(C(=O)NCCC(=O)O)cc1` (stereo not shown) [Example 4.18, 3-(4-(1-(6-(4-(trifluoromethyl)phenyl)pyridin-3-ylamino)butyl)benzamido)propanoic acid] is 60 nM; for `Cc1cc(C(CC(C)C)Nc2ncc(C(=O)NCCC(=O)O)cn2)ccc1-c1ccc(C(F)(F)F)cc1` (racemic) [Example 1.26, (+/−)-3-(2-(3-methyl-1-(2-methyl-4′-(trifluoromethyl)biphenyl-4-yl)butylamino)pyrimidine-5-carboxamido)propanoic acid] it is 390 nM; for `CC(Oc1ccc(-c2ccc(C(F)(F)F)cc2)cc1)c1ccc(C(=O)NCCC(=O)O)cn1` (racemic) [Example 3.3, (+/−)-3-(6-(1-(4′-(trifluoromethyl)biphenyl-4-yloxy)ethyl)nicotinamido) propanoic acid] it is 6000 nM.

Turning to `CCC(Nc1ccc(C(=O)NCCC(=O)O)cn1)c1ccc(-c2ccc(C(F)(F)F)cc2)cc1` (single isomer, unassigned; isomer 1) [Example 1.12, 3-(6-(1-(4′-(trifluoromethyl)biphenyl-4-yl)propylamino)nicotinamido) propanoic acid, Isomer 1], the Kb was 560 nM. The figure for `CC(C)CC(Nc1ccc(C(=O)NCCC(=O)O)cn1)c1ccc(-c2ccccn2)cc1` (racemic) [Example 1.55, (+/−)-3-(6-(3-methyl-1-(4-(68yridine-2-yl)phenyl)butylamino)nicotinamido)propanoic acid] is 4800 nM; for `Cc1ccc(C)c(-c2ccc(C(CC(C)C)Nc3ccc(C(=O)NCCC(=O)O)cn3)cc2)c1` (racemic) [Example 1.49, (+/−)-3-(6-(1-(2′,5′-dimethylbiphenyl-4-yl)-3-methylbutylamino)nicotinamido)propanoic acid] it is 750 nM; for `O=C(O)CCNC(=O)c1ccc(NC(c2ccc(-c3ccc(C(F)(F)F)cc3)cc2)C2CCCC2)nc1` (racemic) [Example 1.35, (+/−)-3-(6-(cyclopentyl(4′-(trifluoromethyl)biphenyl-4-yl)methylamino)nicotinamido)propanoic acid] it is 50 nM. Compound `CCC(Nc1cnc(C(=O)NCCC(=O)O)cn1)c1ccc(-c2ccc(C(F)(F)F)cc2)cc1` (racemic) [Example 1.31, (+/−)-3-(5-(1-(4′-(trifluoromethyl)biphenyl-4-yl)propylamino)pyrazine-2-carboxamido)propanoic acid] came in with a Kb of 540 nM. On to `CC(Nc1ccc(-c2ccc(C(F)(F)F)cc2)cc1)c1ccc(C(=O)NCCC(=O)O)cn1` (racemic) [Example 2.10, (+/−)-3-(6-(1-(4′-(trifluoromethyl)biphenyl-4-ylamino)ethyl)nicotinamido)propanoic acid], for which the Kb turned out to be 1700 nM.

With `CC(C)(C)CC(Nc1ccc(C(=O)NCCC(=O)O)cn1)c1ccc(-c2ccc(C(F)(F)F)cc2)cc1` (racemic) [Example 1.33, (+/−)-3-(6-(3,3-dimethyl-1-(4′-(trifluoromethyl)biphenyl-4-yl)butylamino)nicotinamido)propanoic acid], the Kb stood at 120 nM. The result for `O=C(O)CCNC(=O)c1ccc(NC(CC2CC2)c2ccc(-c3ccc(C(F)(F)F)cc3)cc2)nc1` (stereo not shown) [Example 4.14, 3-(6-(2-cyclopropyl-1-(4′-(trifluoromethyl)biphenyl-4-yl)ethylamino)nicotinamido)propanoic acid] reads 110 nM. The figure for `Cc1cccc(C)c1-c1ccc(C(CC(C)C)Nc2ccc(C(=O)NCCC(=O)O)cn2)cc1` (racemic) [Example 1.48, (+/−)-3-(6-(1-(2′,6′-dimethylbiphenyl-4-yl)-3-methylbutylamino)nicotinamido)propanoic acid] is 1200 nM. The result for `Cc1cc(C(CC(C)C)Nc2ccc(C(=O)NCCC(=O)O)cn2)ccc1-c1ccc(C(F)(F)F)cc1` (racemic) [Example 1.25, (+/−)-3-(6-(3-methyl-1-(2-methyl-4′-(trifluoromethyl)biphenyl-4-yl)butylamino)nicotinamido)propanoic acid] reads 95 nM; that for `CC(C)C[C@@H](Nc1ccc(C(=O)NCCC(=O)O)cn1)c1ccc(-c2ccc(C(F)(F)F)cc2)nc1` (single isomer, unassigned; isomer 2) [Example 4.21, 3-(6-(3-methyl-1-(6-(4-(trifluoromethyl)phenyl)pyridin-3-yl)butylamino)nicotinamido) propanoic acid, Isomer 2], 980 nM; that for `O=C(O)CCNC(=O)c1ccc(NC(c2ccc(-c3ccc(C(F)(F)F)cc3)cc2)C2CCOCC2)nc1` (racemic) [Example 4.7, (±)-3-(6-(((tetrahydro-2H-pyran-4-yl)(4′-(trifluoromethyl)-[1,1′-biphenyl]-4-yl)methyl)amino)nicotinamido)propanoic acid], 220 nM. `CC(C)CC(Nc1ccc(C(=O)NCCC(=O)O)cn1)c1ccc(-c2cccc(F)c2)cc1` (racemic) [Example 1.41, (+/−)-3-(6-(1-(3′-fluorobiphenyl-4-yl)-3-methylbutylamino)nicotinamido)propanoic acid] displayed a Kb of 450 nM.

With `CC(C)CC(Nc1ccc(-c2ccc(C(F)(F)F)cc2)cc1)c1ccc(C(=O)NCCC(=O)O)cn1` (single isomer, unassigned; isomer 1) [Example 2.5, 3-(6-(3-methyl-1-(4′-(trifluoromethyl)biphenyl-4-ylamino)butyl)nicotinamido)propanoic acid, Isomer 1], the Kb was determined as 760 nM. The result for `CCCC(Nc1cnc(-c2ccc(C(F)(F)F)cc2)nc1)c1ccc(C(=O)NCCC(=O)O)cc1` (racemic) [Example 2.15, (+/−)-3-(4-(1-(2-(4-(trifluoromethyl)phenyl)pyrimidin-5-ylamino)butyl)benzamido)propanoic acid] reads 120 nM; that for `CC(C)CC(Nc1ccc(-c2ccc(C(F)(F)F)cc2)cc1)c1ccc(C(=O)NCCC(=O)O)cn1` (single isomer, unassigned; isomer 2) [Example 2.6, 3-(6-(3-methyl-1-(4′-(trifluoromethyl)biphenyl-4-ylamino)butyl)nicotinamido)propanoic acid, Isomer 2], 500 nM; that for `CC(C)CC(Nc1cnc(C(=O)NCCC(=O)O)cn1)c1ccc(-c2ccc(C(F)(F)F)cc2)cc1` (single isomer, unassigned; isomer 2) [Example 1.18, 3-(5-(3-methyl-1-(4′-(trifluoromethyl)biphenyl-4-yl)butylamino)pyrazine-2-carboxamido)propanoic acid, Isomer 2], 120 nM.

`Cc1cc(NC(CC(C)C)c2ccc(C(=O)NCCC(=O)O)cn2)cc(C)c1-c1ccc(C(F)(F)F)cc1` (racemic) [Example 2.1, (+/−)-3-(6-(1-(2,6-dimethyl-4′-(trifluoromethyl)biphenyl-4-ylamino)-3-methylbutyl)nicotinamido)propanoic acid] displayed a Kb of 38 nM.

`CC(C)CC(Nc1ccc(C(=O)NCCC(=O)O)cn1)c1ccc(-c2cccnc2)cc1` (racemic) [Example 1.40, (+/−)-3-(6-(3-methyl-1-(4-(pyridin-3-yl)phenyl)butylamino)nicotinamido)propanoic acid] registered a Kb of 4600 nM. The result for `COc1ccc(-c2ccc(C(CC(C)C)Nc3ccc(C(=O)NCCC(=O)O)cn3)cc2)cc1` (racemic) [Example 1.52, (+/−)-3-(6-(1-(4′-methoxybiphenyl-4-yl)-3-methylbutylamino)nicotinamido)propanoic acid] reads 120 nM; that for `CC(C)CC(Nc1cnc(C(=O)NCCC(=O)O)cn1)c1ccc(-c2ccc(C(F)(F)F)cc2)cc1` (single isomer, unassigned; isomer 1) [Example 1.17, 3-(5-(3-methyl-1-(4′-(trifluoromethyl)biphenyl-4-yl)butylamino)pyrazine-2-carboxamido)propanoic acid, Isomer 1], 1100 nM.
